Assay results: patent publication US20150105252A1, “SUBSTITUTED PYRAZOLES AS HERBICIDES” (E I DU PONT DE NEMOURS AND COMPANY, priority 2013, published 2015)

Tests used:
morningglory [1] = test: Test A preemergence; type: in vivo, Ipomoea spp.; conditions: preemergence; for Morningglory plant response rating (0 to 100 scale): 125 g ai/ha, visual injury approx. 10 days after treatment; for Morningglory plant response rating: 500 g ai/ha, visual injury after approx. 10 days, 0 to 100 scale (0 no effect, 100 complete control)
How it was run: (§1)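 Growth medium: loam soil blended with sand. Preemergence treatment used a directed soil spray right after planting; postemergence treatment targeted seedlings at one to two leaves (2–10 cm height). Response was judged by eye relative to untreated plants about 10 days later on a 0–100 control scale.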

corn = test: Test A postemergence; type: in vivo, Zea mays
How it was run: as §1

sedge, umbrella = test: Test B flood; type: in vivo, Cyperus difformis; conditions: 250 g ai/ha, visual rating on 0 to 100 scale (0 no effect, 100 complete control), 13 to 15 days
How it was run: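 Paddy-water application: seedlings at 2-leaf stage, flood depth 3 cm maintained for the test duration. Evaluation after 13–15 days in the greenhouse by eye relative to controls; 0–100 scale.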

ryegrass, Italian = test: Test C preemergence; type: in vivo, Lolium multiflorum; conditions: preemergence; for Plant response rating, Ryegrass, Italian: 125 g ai/ha, scale 0 to 100, 0 = no effect, 100 = complete control
How it was run: (§2)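 Seeds sown in loam–sand blend and treated preemergence with test chemicals in non-phytotoxic solvent with surfactant; postemergence plants in peat-based medium, treated at 2–18 cm (1- to 4-leaf stage). Greenhouse 13 to 15 days, then visual rating versus controls, 0 (no effect) to 100 (complete control).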

galium = test: Test C preemergence; type: in vivo, Galium aparine; conditions: preemergence; for Plant response rating, Galium: 125 g ai/ha, scale 0 to 100, 0 = no effect, 100 = complete control
How it was run: as §2

crabgrass, large = test: Test C preemergence; type: in vivo, Digitaria sanguinalis; conditions: preemergence; for Plant response rating, Crabgrass, Large: 125 g ai/ha, scale 0 to 100, 0 = no effect, 100 = complete control
How it was run: as §2

wheat = test: Test C postemergence; type: in vivo, Triticum aestivum; conditions: postemergence; for Plant response rating, Wheat: 250 g ai/ha, scale 0 to 100 (0 no effect, 100 complete control); for Wheat plant response rating: scale 0 to 100
How it was run: as §2

foxtail, giant = test: Test C postemergence; type: in vivo, Setaria faberii; conditions: for Plant response rating (scale of 0 to 100 where 0 is no effect and 100 is complete control), Foxtail, Giant: Postemergence, 31 g ai/ha, visually evaluated after 13 to 15 days; for Foxtail, Giant plant response rating / Plant response rating, Foxtail, Giant: postemergence; for Foxtail, Giant plant response rating: 62 g ai/ha, scale 0 to 100
How it was run: as §2

morningglory [2] = test: Test C postemergence; type: in vivo, Ipomoea coccinea; conditions: for Plant response rating (scale of 0 to 100 where 0 is no effect and 100 is complete control), Morningglory: Postemergence, 31 g ai/ha, visually evaluated after 13 to 15 days; for Morningglory plant response rating / Plant response rating, Morningglory: postemergence; for Morningglory plant response rating: 62 g ai/ha, scale 0 to 100
How it was run: as §2

pigweed = test: Test C postemergence; type: in vivo, Amaranthus retroflexus; conditions: postemergence; for Pigweed plant response rating: 62 g ai/ha, scale 0 to 100
How it was run: as §2

ragweed = test: Test C postemergence; type: in vivo, Ambrosia elation; conditions: postemergence
How it was run: as §2

oat, wild = test: Test C postemergence; type: in vivo, Avena fatua; conditions: for Plant response rating (scale of 0 to 100 where 0 is no effect and 100 is complete control), Oat, Wild: Postemergence, 31 g ai/ha, visually evaluated after 13 to 15 days; for Oat, Wild plant response rating / Plant response rating, Oat, Wild: postemergence; for Oat, Wild plant response rating: 62 g ai/ha, scale 0 to 100
How it was run: as §2

chickweed = test: Test C postemergence; type: in vivo, Stellaria media; conditions: for Plant response rating (scale of 0 to 100 where 0 is no effect and 100 is complete control), Chickweed: Postemergence, 31 g ai/ha, visually evaluated after 13 to 15 days; for Chickweed plant response rating / Plant response rating, Chickweed: postemergence; for Chickweed plant response rating: 62 g ai/ha, scale 0 to 100
How it was run: as §2

[3] = Postemergence, 500 g ai/ha, 0 to 100 scale (0 no effect, 100 complete control)
[4] = postemergence, 125 g ai/ha, about 10 days, visual rating on 0 to 100 scale (0 no effect, 100 complete control)
[5] = 31 g ai/ha, visual rating, scale 0 to 100 (0 no effect, 100 complete control), 13 to 15 days
[6] = 62 g ai/ha, scale 0 to 100 (0 no effect, 100 complete control), 13 to 15 days
[7] = 250 g ai/ha, scale 0 to 100, 0 is no effect, 100 is complete control
[8] = 250 g ai/ha, scale 0 to 100 (0 no effect, 100 complete control)
[9] = 125 g ai/ha, scale 0 to 100, 0 no effect, 100 complete control

| SMILES | Morningglory plant response rating (0 to 100 scale) (morningglory [1]) | Corn plant response rating (corn; [3]) | Plant response rating, Sedge, Umbrella (sedge, umbrella) | Ryegrass, Italian plant response rating (ryegrass, Italian; [5]) | Ryegrass, Italian plant response rating (ryegrass, Italian; [6]) | Plant response rating, Ryegrass, Italian (ryegrass, Italian; 13 to 15 days) | Ryegrass, Italian plant response rating (ryegrass, Italian; [7]) | Galium plant response rating (galium; [5]) | Galium plant response rating (galium; [6]) | Plant response rating, Galium (galium; 13 to 15 days) | Galium plant response rating (galium; [7]) | Crabgrass, Large plant response rating (crabgrass, large; [5]) | Crabgrass, Large plant response rating (crabgrass, large; [6]) | Plant response rating, Crabgrass, Large (crabgrass, large; 13 to 15 days) | Crabgrass, Large plant response rating (crabgrass, large; [7]) | Plant response rating, Wheat (wheat) | Wheat plant response rating (wheat) | Plant response rating (scale of 0 to 100 where 0 is no effect and 100 is complete control), Foxtail, Giant (foxtail, giant) | Foxtail, Giant plant response rating (foxtail, giant) | Plant response rating, Foxtail, Giant (foxtail, giant; [8]) | further results |
| --- | --- | --- | --- | --- | --- | --- | --- | --- | --- | --- | --- | --- | --- | --- | --- | --- | --- | --- | --- | --- | --- |
| CCOc1cc(C(=O)NOC(C)C)nn1Cc1ccnc(C(F)(F)F)c1 [Compound 153] | 100 | 100 | 95 | 5 | 50 | 90 | 90 | 30 | 100 | 100 | 100 | 85 | 98 | 100 | 100 | 15 | 0 | 5 | 5 | 65 | Morningglory plant response rating (morningglory [1]): 100; Corn plant response rating (corn; [4]): 90; Plant response rating, Foxtail, Giant (foxtail, giant; [9]): 10; Plant response rating (scale of 0 to 100 where 0 is no effect and 100 is complete control), Morningglory (morningglory [2]): 65; Morningglory plant response rating (morningglory [2]): 85; Plant response rating, Morningglory (morningglory [2]; [8]): 80; Plant response rating, Morningglory (morningglory [2]; [9]): 70; Pigweed plant response rating (pigweed): 25; Plant response rating, Pigweed (pigweed; [8]): 80; Plant response rating, Pigweed (pigweed; [9]): 25; Plant response rating, Ragweed (ragweed; [8]): 85; Plant response rating, Ragweed (ragweed; [9]): 40; Plant response rating (scale of 0 to 100 where 0 is no effect and 100 is complete control), Oat, Wild (oat, wild): 5; Oat, Wild plant response rating (oat, wild): 10; Plant response rating, Oat, Wild (oat, wild; [8]): 20; Plant response rating, Oat, Wild (oat, wild; [9]): 5; Plant response rating (scale of 0 to 100 where 0 is no effect and 100 is complete control), Chickweed (chickweed): 50; Chickweed plant response rating (chickweed): 70; Plant response rating, Chickweed (chickweed; [8]): 80; Plant response rating, Chickweed (chickweed; [9]): 70 |
| CCc1cc(C(=O)NCC(F)(F)F)nn1Cc1ccnc(SC(F)(F)F)c1 [Compound 214] | 80 | 90 | 95 | 5 | 30 | 70 | 80 | 80 | 80 | 90 | 80 | 100 | 100 | 100 | 100 | 10 | 5 | 5 | 5 | 20 | Corn plant response rating (corn; Postemergence, 125 g ai/ha, 0 to 100 scale, 0 no effect, 100 complete control): 40; Plant response rating, Foxtail, Giant (foxtail, giant; [9]): 15; Plant response rating (scale of 0 to 100 where 0 is no effect and 100 is complete control), Morningglory (morningglory [2]): 75; Morningglory plant response rating (morningglory [2]): 95; Plant response rating, Morningglory (morningglory [2]; [8]): 85; Plant response rating, Morningglory (morningglory [2]; [9]): 85; Pigweed plant response rating (pigweed): 60; Plant response rating, Pigweed (pigweed; [8]): 85; Plant response rating, Pigweed (pigweed; [9]): 75; Plant response rating, Ragweed (ragweed; [8]): 70; Plant response rating, Ragweed (ragweed; [9]): 35; Plant response rating (scale of 0 to 100 where 0 is no effect and 100 is complete control), Oat, Wild (oat, wild): 10; Oat, Wild plant response rating (oat, wild): 15; Plant response rating, Oat, Wild (oat, wild; [8]): 40; Plant response rating, Oat, Wild (oat, wild; [9]): 15; Plant response rating (scale of 0 to 100 where 0 is no effect and 100 is complete control), Chickweed (chickweed): 50; Chickweed plant response rating (chickweed): 55; Plant response rating, Chickweed (chickweed; [8]): 85; Plant response rating, Chickweed (chickweed; [9]): 70 |
| CCCNC(=O)c1cc(OCC)n(Cc2ccnc(C(F)(F)F)c2)n1 [Compound 187] | 100 | 100 | 90 | 50 | 80 | 90 | 90 | 90 | 95 | 95 | 98 | 100 | 100 | 100 | 100 | 15 | 10 | 5 | 10 | 70 | Morningglory plant response rating (morningglory [1]): 100; Corn plant response rating (corn; [4]): 80; Plant response rating, Foxtail, Giant (foxtail, giant; [9]): 45; Plant response rating (scale of 0 to 100 where 0 is no effect and 100 is complete control), Morningglory (morningglory [2]): 70; Morningglory plant response rating (morningglory [2]): 85; Plant response rating, Morningglory (morningglory [2]; [8]): 98; Plant response rating, Morningglory (morningglory [2]; [9]): 80; Pigweed plant response rating (pigweed): 50; Plant response rating, Pigweed (pigweed; [8]): 75; Plant response rating, Pigweed (pigweed; [9]): 60; Plant response rating, Ragweed (ragweed; [8]): 85; Plant response rating, Ragweed (ragweed; [9]): 50; Plant response rating (scale of 0 to 100 where 0 is no effect and 100 is complete control), Oat, Wild (oat, wild): 10; Oat, Wild plant response rating (oat, wild): 15; Plant response rating, Oat, Wild (oat, wild; [8]): 50; Plant response rating, Oat, Wild (oat, wild; [9]): 30; Plant response rating (scale of 0 to 100 where 0 is no effect and 100 is complete control), Chickweed (chickweed): 98; Chickweed plant response rating (chickweed): 70; Plant response rating, Chickweed (chickweed; [8]): 85; Plant response rating, Chickweed (chickweed; [9]): 80 |
